Assay results as given in patent publication US4012284A (Societa' Farmaceutici Italia, S.p.A., priority 1962, dated 1977).

What was measured:
Ehrlich adenocarcinoma [1] = assay: Ehrlich adenocarcinoma (solid) in mice (Table VI); format: in vivo, mouse; conditions: controls 0/10
[2] = test system: tumors, ascitic and solid; assay: Antitumor activity on standard experimental animals (summary statements); format: in vivo, mouse and rat
Source text: (§1) At least 20 animals per lot were used.

Solubility = format: physicochemical
Acute toxicity, rat = conditions: in vivo
Source text: (§2) In the following Table the acute toxicity of Daunomycin as LD50 is reported.

Walker carcinosarcoma [3] = assay: Walker carcinosarcoma in rats (Table VIII); format: in vivo, rat; conditions: for % Inhibition (tumor growth) / Average tumor weight / Mortality / Body weight change, not [net] / Body weight change, gross: 8 times within 10 days; for % Inhibition (tumor growth) / Average tumor weight: 11th day; for Average tumor weight: controls 15.940; for Mortality: controls 1/10; for Body weight change, not [net]: controls +6.96; for Body weight change, gross: controls +22.9
Source text: as §1
(§3) The checking of the activity on solid tumors has been carried out with Ehrlich adenocarcinoma and sarcoma 180 in the mouse and with Walker carcinosarcoma and the Oberling-Guerin-Guerin myeloma in the rat.
The rats grafted with this tumor have been treated intravenously 8 times within 10 days; at the 11th day of experiment, the surviving animals were killed and the tumors removed.

Hepatoma AH 130 = assay: Ascitic hepatoma AH 130 in Wistar rats; format: in vivo, Wistar rat; conditions: 2 and 1 mg/kg/day intraperitoneally, 5 days, after 50 days of the experiment
Experimental: as §1
(§4) Activity tests were carried out on mice, bearing Ehrlich ascitic carcinoma and on rats, which are grafted with hepatoma AH 130 and Oberling-Guerin-Guerin myeloma.
Wistar rats, grafted with accitic hepatoma have been treated intraperitoneously for 5 consecutive days with antibiotic doses of 2 and 1 mg/kg/day.

several microorganisms = assay: Bacteriostatic activity / antimicrobial spectrum (summary statements); format: cell-based
[4] = test system: Ascitic myeloma (Oberling-Guerin-Guerin myeloma); assay: Ascitic myeloma (Oberling-Guerin-Guerin) in Wistar rats (Table V); format: in vivo, rat; conditions: for Average survival time: controls 10.7
Experimental: as §1, §4
This experiment was carried out on Wister rats, which have been grafted with a suspension of tumor cells and then have been treated intraperitoneously with a solution of the antibiotic according to the following scheme: one group three times on alternate days with a dose equal to 2 mg/kg/day; another group for 5 consecutive days with a dose of 1 mg/kg/day.

[5] = test system: Ehrlich ascitic carcinoma; assay: Ehrlich ascitic carcinoma in mice (Table III); format: in vivo, mouse; conditions: for Body weight increase / Average survival time: 5 days; for Average survival time: controls 16.4
Experimental: as §1, §4
(§5) Mice are grafted intraporitoneally with a suspension of tumor cells and treated with solutions of different concentrations of the antibiotic for five consecutive days starting from the day following the tumor implantation.

Sarcoma 180 = Sarcoma 180 (solid) in mice (Table VII); format: in vivo, mouse; conditions: 2 mg/kg/day intraperitoneally, 7 days
Experimental: as §1, §3
Mice grafted with a fragment of neoplastic tissue have been treated intraperitoneally for seven consecutive days, starting from the day following the tumor implantation. The antibiotic was administered in solution at a dose of 2 mg/kg/day. At the tenth day of experiment, all the mice were killed and the tumors and spleens were removed.

[6] = test system: Ehrlich ascitic carcinoma; assay: Ehrlich ascitic carcinoma, second experiment, intravenous (Table IV); format: in vivo, mouse; conditions: 1.75 mg/kg/day intravenously, 4 days
Experimental: as §1, §4, §5
The result has been confirmed by a successive experiment in which the antibiotic has been administered at the dose of 1.75 mg/kg intravenously for 4 days (Table IV).

Ehrlich adenocarcinoma [7] = assay: Ehrlich adenocarcinoma (solid) in mice (Table VI); format: in vivo, mouse; conditions: for Body weight change, not [net]: controls +2.27; for Body weight change, gross: controls +4.85; for % Inhibition (tumor growth) / Average tumor weight: eighth day; for Average tumor weight: controls 2.583
Source text: as §1, §3
Mice grafted with a fragment of tumor subcutaneously for 6 days starting from the day after the transplantation have been treated with a solution of the antibiotic. At the eighth day of experiment all the animals were killed and the tumor was removed and weighed.

[8] = test system: Oberling-Guerin-Guerin myeloma; assay: Oberling-Guerin-Guerin myeloma (solid) in Long-Evans rats (Table X); conditions: 10 days; for % Inhibition (tumor growth) / Average tumor weight: 13th day; for Average tumor weight: controls 17.23; for Mortality: controls 3/12; for Body weight change, not [net]: controls +28.-; for Body weight change, gross: controls +45.2
Acute toxicity, mouse = conditions: in vivo
Source text: as §2

Walker carcinosarcoma [9] = assay: Walker carcinosarcoma in rats, second experiment (Table IX); format: in vivo, rat; conditions: 3 mg/kg/day intravenously
Experimental: as §1, §3
A second experiment with rats, bearing the same tumor, has been carried out to investigate the effect of the antibiotic on the animals' survival besides the antitumor activity. In this case the rats were treated intravenously 8 times within 12 days at the dose of 3 mg/kg/day.

COc1cccc2c1C(=O)c1c(O)c3c(c(O)c1C2=O)C[C@@](O)(C(C)=O)C[C@@H]3O[C@H]1C[C@H](N)[C@H](O)[C@H](C)O1 [F.I. 1762]
Mortality (Ehrlich adenocarcinoma [1]; 3 mg/kg/day): 0/10
Mortality (Ehrlich adenocarcinoma [1]; 6 mg/kg/day): 0/10
effect in solid tumors ([2]; activity differs according to administration route and dose): Good inhibiting effect
effect on the tumor growth in ascitic form ([2]; immediate contact of the antibiotic and the neoplastic cells): marked inhibitory effect on the tumor growth in ascitic form
results by route and dose ([2]; intravenous, doses between 2 and 3 mg/kg/body weight day): best results
usefulness as antitumoral ([2]; standard experimental animals): particularly useful as antitumoral
solubility (Solubility; in alcohols, ketones, halogenated hydrocarbons, aqueous solutions of organic and inorganic acids): soluble
solubility (Solubility; in ethers and saturated hydrocarbons): practically insoluble
solubility in water (Solubility; water): slightly soluble
LD50 (Acute toxicity, rat; intravenous): 13 to 15 mg/kg
LD50 (Acute toxicity, rat; ip, intraperitoneal): 8 mg/kg
% Inhibition (tumor growth) (Walker carcinosarcoma [3]; 1 mg/kg/day intravenously): 42.1%
Average tumor weight (Walker carcinosarcoma [3]; 1 mg/kg/day intravenously): 9.443 grams
Mortality (Walker carcinosarcoma [3]; 1 mg/kg/day intravenously): 1/10
Body weight change, not [net] (Walker carcinosarcoma [3]; 1 mg/kg/day intravenously): +0.76 grams
Body weight change, gross (Walker carcinosarcoma [3]; 1 mg/kg/day intravenously): +10.2 grams
tolerance (Walker carcinosarcoma [3]; 2 mg/kg/day intravenously): tolerated
% Inhibition (tumor growth) (Walker carcinosarcoma [3]; 2 mg/kg/day intravenously): 66.1%
Average tumor weight (Walker carcinosarcoma [3]; 2 mg/kg/day intravenously): 5.404 grams
Mortality (Walker carcinosarcoma [3]; 2 mg/kg/day intravenously): 1/10
Body weight change, not [net] (Walker carcinosarcoma [3]; 2 mg/kg/day intravenously): +22.25 grams
Body weight change, gross (Walker carcinosarcoma [3]; 2 mg/kg/day intravenously): +27.9 grams
effect on this type of tumor (Walker carcinosarcoma [3]; especially with 2 mg/kg/day intravenously): marked inhibitory effect
trace of tumor (Hepatoma AH 130): In none of them was any trace of tumor noticed
survival of treated rats (Hepatoma AH 130; controls average survival 11.8 days): all the treated rats were still alive after 50 days of the experiment
antimicrobial spectrum (several microorganisms): embraces grampositive, gram-negative bacteria, fungi and protozoa
bacteriostatic activity against several microorganisms (several microorganisms): remarkable bacteriostatic activity against several microorganisms
Average survival time ([4]; 1 mg/kg/day intraperitoneally, 5 consecutive days): 16.7 days
Average survival time ([4]; 2 mg/kg/day intraperitoneally, three times on alternate days): 17.7 days
diffusion of the tumor ([4]; 2 mg/kg/day x 3 or 1 mg/kg/day x 5, intraperitoneally): a delay in the diffusion of the tumor has been observed
Body weight increase ([5]; 0.75 mg/kg/day, 7 days after implantation, controls +9.6): +2.9 grams
Body weight increase ([5]; 0.75 mg/kg/day, 14 days after implantation, controls +21.4): +5.3 grams
Body weight increase ([5]; 1.25 mg/kg/day, 7 days after implantation, controls +9.6): +1.5 grams
Body weight increase ([5]; 1.25 mg/kg/day, 14 days after implantation, controls +21.4): +3.1 grams
Body weight increase ([5]; 1.25 mg/kg/day, 21 days after implantation): +4.4 grams
Average survival time ([5]; 1.25 mg/kg/day): 32.0 days
Body weight increase ([5]; 1.75 mg/kg/day, 7 days after implantation, controls +9.6): +1.3 grams
Body weight increase ([5]; 1.75 mg/kg/day, 14 days after implantation, controls +21.4): +2.4 grams
Body weight increase ([5]; 1.75 mg/kg/day, 21 days after implantation): +4.7 grams
Average survival time ([5]; 1.75 mg/kg/day): 36.4 days
average survival rate of the treated animals ([5]; 1.75 and 1.25 mg/kg/day): increased considerably
effect on the ascitic tumor growth ([5]; 1.75 and 1.25 mg/kg/day): remarkable inhibitory effect on the ascitic tumor growth
spleen (Sarcoma 180): marked shrinkage of the spleen
tumor growth (Sarcoma 180): marked inhibition of tumor growth
Mortality (Sarcoma 180; controls 0/10): 0/10
Body weight change, not [net] (Sarcoma 180; controls +2.83): -3.01 grams
Body weight change, gross (Sarcoma 180; controls +5.05): -1.72 grams
% Inhibition, spleen (Sarcoma 180; tenth day): 62.7%
% Inhibition, tumor (Sarcoma 180; tenth day): 42.1%
Average weight, tumor (Sarcoma 180; tenth day, controls 2.225): 1.289 grams
Average weight, spleen (Sarcoma 180; tenth day, controls 251): 93.5 milligrams
Body weight increase ([6]; 7 days after implantation, controls +6.3): +0.1 grams
Body weight increase ([6]; 12 days after implantation, controls +14.2): +2.2 grams
Average survival time ([6]; controls 12.4): 35.1 days
Body weight change, not [net] (Ehrlich adenocarcinoma [7]; 3 mg/kg/day): +1.59 grams
Body weight change, gross (Ehrlich adenocarcinoma [7]; 3 mg/kg/day): +3.84 grams
% Inhibition (tumor growth) (Ehrlich adenocarcinoma [7]; 3 mg/kg/day): 12%
Average tumor weight (Ehrlich adenocarcinoma [7]; 3 mg/kg/day): 2.253 grams
Body weight change, not [net] (Ehrlich adenocarcinoma [7]; 6 mg/kg/day): +1.07 grams
Body weight change, gross (Ehrlich adenocarcinoma [7]; 6 mg/kg/day): +2.59 grams
% Inhibition (tumor growth) (Ehrlich adenocarcinoma [7]; 6 mg/kg/day): 41.1%
Average tumor weight (Ehrlich adenocarcinoma [7]; 6 mg/kg/day): 1.522 grams
% Inhibition (tumor growth) ([8]; 2 mg/kg/day intravenously): 34.5%
Average tumor weight ([8]; 2 mg/kg/day intravenously): 11.30 grams
Mortality ([8]; 2 mg/kg/day intravenously): 0/12
Body weight change, not [net] ([8]; 2 mg/kg/day intravenously): +20 grams
Body weight change, gross ([8]; 2 mg/kg/day intravenously): +33.3 grams
% Inhibition (tumor growth) ([8]; 4 mg/kg/day intravenously): 82.8%
Average tumor weight ([8]; 4 mg/kg/day intravenously): 2.98 grams
Mortality ([8]; 4 mg/kg/day intravenously): 4/12
Body weight change, not [net] ([8]; 4 mg/kg/day intravenously): +0.8 grams
Body weight change, gross ([8]; 4 mg/kg/day intravenously): +3.8 grams
LD50 (Acute toxicity, mouse; intravenous): 20 mg/kg
LD50 (Acute toxicity, mouse; ip, intraperitoneal): 5 mg/kg
increase of average survival (Walker carcinosarcoma [9]; 8 times within 12 days): 50.8%
Tumor growth inhibition (Walker carcinosarcoma [9]; 8 times within 12 days, 9th day): 71.0 % of the control
Tumor growth inhibition (Walker carcinosarcoma [9]; 8 times within 12 days, 29th day): 31.6 % of the control
Average survival time (Walker carcinosarcoma [9]; 8 times within 12 days, controls 16.9): 25.5 days
tumor growth inhibition (in words) (Walker carcinosarcoma [9]; 20 days after the injections were stopped): still continues in a remarkable degree
tumor growth inhibition (in words) (Walker carcinosarcoma [9]; during the treatment): considerable during the treatment
